Our source for the pKa values is US4260745A, “3-Halo cephalosporins” (Eli Lilly and Company, priority 1979, dated 1981).

Structures can show the parent of a compound that is named as a salt. Where two headings read alike, the source gives them in different places.

The nature of this data set: Electrometric titration. The data set is classed as physicochemical.
Setting [1] is: 66% aqueous dmf, only or first pKa, read-out: pKa.

In the case of `COC(=O)C1=C(O)CS[C@@H]2C(NC(=O)COc3ccccc3)C(=O)N12` (stereo partly shown) [Example 9, Methyl 7-phenoxyacetamido-3-hydroxy-3-cephem-4-carboxylate], under setting [1], the pKa was 5.6.
As for `CC(=O)NC1C(=O)N2C(C(=O)OCc3ccc([N+](=O)[O-])cc3)=C(O)CS[C@H]12` (stereo partly shown) [Example 13, p-Nitrobenzyl 7-acetamido-3-hydroxy-3-cephem-4-carboxylate], under setting [1], the pKa was 5.9.
For the compound `NC1C(=O)N2C(C(=O)OC(c3ccccc3)c3ccccc3)=C(O)CS[C@H]12` (stereo partly shown) [diphenylmethyl 7-amino-3-hydroxy-3-cephem-4-carboxylate hydrochloride], the pKa by setting is: (60% aqueous dmf, 60% aq. DMF, first group, read-out: titratable groups) 4.5; (60% aqueous dmf, 60% aq. DMF, second group, read-out: titratable groups) 6.5.
